# From patent publication US10363239B2, “Method for inhibiting growth of cancer cells” (Pain Therapeutics, Inc., priority 2013, dated 2019)
# Where two headings read alike, the source gives them in different places.
# Assays:
# [1] = target: FLNA pentapeptide of SEQ ID NO: 1 (Bn-VAKGL) (Homo sapiens, UniProt P21333); assay: FITC-NLX-based FLNA screening assay (inhibition of FITC-naloxone binding to Bn-VAKGL on streptavidin plates); conditions: 10 nM FITC-NLX
# mu opiate receptor (MOR) = assay: MOR agonist activity using [35S]GTPγS binding assay in striatal membranes; type: biochemical; conditions: for % DAMGO (0.1 μM) / % DAMGO (1 μM): relative to DAMGO; for % DAMGO + BFNA: 1 μM compound + β-FNA, relative to DAMGO + BFNA
# Method in brief: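 Striatal membranes (200 μg) were preincubated 5 min at 30 °C in HEPES pH 7.5 with 100 mM NaCl, 1 mM MgCl2 and 0.5 nM [35S]GTPγS, then 5 min more with 0.1–10 μM compound. Gαo was immunoprecipitated and bound radioactivity counted by scintillation.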
# [2] = FLNA-binding compound 0.01 μM, read-out: Percent Binding Inhibition
# [3] = FLNA-binding compound 0.1 μM, read-out: Percent Binding Inhibition
# [4] = FLNA-binding compound 1 μM, read-out: Percent Binding Inhibition
# [5] = Series C-2, 0.1 μM compound, [35S]GTPγS binding to Gαo, striatal membranes
# [6] = Series C-2, 1 μM compound + 1 μM β-FNA
# [7] = Series C-2, 1 μM compound, [35S]GTPγS binding to Gαo, striatal membranes
# [8] = read-out: Percent Binding Inhibition, FLNA-binding compound 0.01 μM
# [9] = read-out: Percent Binding Inhibition, FLNA-binding compound 0.1 μM
# [10] = read-out: Percent Binding Inhibition, FLNA-binding compound 1 μM
# [11] = Series C-1, 0.1 μM compound, [35S]GTPγS binding to Gαo, striatal membranes
# [12] = Series C-1, 1 μM compound + 1 μM β-FNA
# [13] = Series C-1, 1 μM compound, [35S]GTPγS binding to Gαo, striatal membranes
smiles,measurement,setting,value
CC(=O)N1CCSC12CCN(S(=O)(=O)c1ccc([N+](=O)[O-])cc1)CC2 [Compound C0050],inhibition at 0.01 µM,[1]; [2],26.7%
same,inhibition at 0.1 µM,[1]; [3],34.5%
same,inhibition at 1 µM,[1]; [4],36.4%
same,% DAMGO (0.1 μM),"mu opiate receptor (MOR); Series C-2, 0.1 μM compound",76.1%
same,"MOR agonist activity, percent [35S]GTPγS binding at the stated compound concentration",mu opiate receptor (MOR); [5],110.3%
same,"MOR agonist activity, percent [35S]GTPγS binding at the stated compound concentration",mu opiate receptor (MOR); [6],59.0%
same,% DAMGO + BFNA,mu opiate receptor (MOR); Series C-2,134.1%
same,% DAMGO (1 μM),"mu opiate receptor (MOR); Series C-2, 1 μM compound",54.8%
same,"MOR agonist activity, percent [35S]GTPγS binding at the stated compound concentration",mu opiate receptor (MOR); [7],127.6%
CC(O)c1ccc(S(=O)(=O)N2CCC3(CC2)OCCN3S(=O)(=O)c2ccc(C(C)O)cc2)cc1 (stereo not drawn) [Compound C0051],inhibition at 0.01 µM,[1]; [8],27%
same,inhibition at 0.1 µM,[1]; [9],30.4%
same,inhibition at 1 µM,[1]; [10],36.4%
same,% DAMGO (0.1 μM),"mu opiate receptor (MOR); Series C-1, 0.1 μM compound",65.1%
same,Concentration of FLNA-Binding Compound as Agonist 0.1 μM,mu opiate receptor (MOR); [11],94.4%
same,Concentration of FLNA-Binding Compound as Agonist 1 μM + BFNA,mu opiate receptor (MOR); [12],55.9%
same,% DAMGO + BFNA,mu opiate receptor (MOR); Series C-1,127.0%
same,% DAMGO (1 μM),"mu opiate receptor (MOR); Series C-1, 1 μM compound",73.1%
same,Concentration of FLNA-Binding Compound as Agonist 1 μM,mu opiate receptor (MOR); [13],170.4%
CC(=O)c1ccc(C(=O)N2CCC3(CC2)OCCN3S(=O)(=O)c2ccc(C(C)=O)cc2)cc1 [Compound C0052],inhibition at 0.01 µM,[1]; [8],28%
same,inhibition at 0.1 µM,[1]; [9],35.6%
same,inhibition at 1 µM,[1]; [10],40.8%
same,% DAMGO (0.1 μM),"mu opiate receptor (MOR); Series C-1, 0.1 μM compound",74.8%
same,Concentration of FLNA-Binding Compound as Agonist 0.1 μM,mu opiate receptor (MOR); [11],108.4%
same,Concentration of FLNA-Binding Compound as Agonist 1 μM + BFNA,mu opiate receptor (MOR); [12],42.7%
same,% DAMGO + BFNA,mu opiate receptor (MOR); Series C-1,97.0%
same,% DAMGO (1 μM),"mu opiate receptor (MOR); Series C-1, 1 μM compound",69.9%
same,Concentration of FLNA-Binding Compound as Agonist 1 μM,mu opiate receptor (MOR); [13],162.8%
CC(=O)c1ccc(C(=O)N2CCOC23CCN(S(=O)(=O)c2ccc(C(C)=O)cc2)CC3)cc1 [Compound C0053],inhibition at 0.01 µM,[1]; [2],28.9%
same,inhibition at 0.1 µM,[1]; [3],33.8%
same,inhibition at 1 µM,[1]; [4],39.3%
same,% DAMGO (0.1 μM),"mu opiate receptor (MOR); Series C-1, 0.1 μM compound",71.7%
same,Concentration of FLNA-Binding Compound as Agonist 0.1 μM,mu opiate receptor (MOR); [11],104.0%
same,Concentration of FLNA-Binding Compound as Agonist 1 μM + BFNA,mu opiate receptor (MOR); [12],93.1%
same,% DAMGO + BFNA,mu opiate receptor (MOR); Series C-1,211.6%
same,% DAMGO (1 μM),"mu opiate receptor (MOR); Series C-1, 1 μM compound",67.5%
same,Concentration of FLNA-Binding Compound as Agonist 1 μM,mu opiate receptor (MOR); [13],157.2%
CC(=O)c1ccc(C(=O)N2CCC3(CC2)OCCN3C(=O)c2ccc(C(C)=O)cc2)cc1 [Compound C0054],inhibition at 0.01 µM,[1]; [2],32.9%
same,inhibition at 0.1 µM,[1]; [3],39.4%
same,inhibition at 1 µM,[1]; [4],43.3%
same,% DAMGO (0.1 μM),"mu opiate receptor (MOR); Series C-1, 0.1 μM compound",47.0%
same,Concentration of FLNA-Binding Compound as Agonist 0.1 μM,mu opiate receptor (MOR); [11],68.2%
same,Concentration of FLNA-Binding Compound as Agonist 1 μM + BFNA,mu opiate receptor (MOR); [12],43.5%
same,% DAMGO + BFNA,mu opiate receptor (MOR); Series C-1,98.9%
same,% DAMGO (1 μM),"mu opiate receptor (MOR); Series C-1, 1 μM compound",54.5%
same,Concentration of FLNA-Binding Compound as Agonist 1 μM,mu opiate receptor (MOR); [13],127.0%
CC(=O)c1ccc(S(=O)(=O)N2CCC3(CC2)OCCN3S(C)(=O)=O)cc1 [Compound C0056],inhibition at 0.01 µM,[1]; [2],33.7%
same,inhibition at 0.1 µM,[1]; [3],38.9%
same,inhibition at 1 µM,[1]; [4],41.4%
same,% DAMGO (0.1 μM),"mu opiate receptor (MOR); Series C-2, 0.1 μM compound",68.0%
same,"MOR agonist activity, percent [35S]GTPγS binding at the stated compound concentration",mu opiate receptor (MOR); [5],98.6%
same,"MOR agonist activity, percent [35S]GTPγS binding at the stated compound concentration",mu opiate receptor (MOR); [6],86.3%
same,% DAMGO + BFNA,mu opiate receptor (MOR); Series C-2,196.1%
same,% DAMGO (1 μM),"mu opiate receptor (MOR); Series C-2, 1 μM compound",83.0%
same,"MOR agonist activity, percent [35S]GTPγS binding at the stated compound concentration",mu opiate receptor (MOR); [7],193.4%
CC(=O)c1ccc(S(=O)(=O)N2CCC3(CC2)NCCS3)cc1 [Compound C0060],inhibition at 0.01 µM,[1]; [2],60.3%
same,inhibition at 0.1 µM,[1]; [3],64%
same,inhibition at 1 µM,[1]; [4],68%
same,% DAMGO (0.1 μM),"mu opiate receptor (MOR); Series C-2, 0.1 μM compound",114.8%
same,"MOR agonist activity, percent [35S]GTPγS binding at the stated compound concentration",mu opiate receptor (MOR); [5],166.5%
same,"MOR agonist activity, percent [35S]GTPγS binding at the stated compound concentration",mu opiate receptor (MOR); [6],143.9%
same,% DAMGO + BFNA,mu opiate receptor (MOR); Series C-2,327.0%
same,% DAMGO (1 μM),"mu opiate receptor (MOR); Series C-2, 1 μM compound",93.9%
same,"MOR agonist activity, percent [35S]GTPγS binding at the stated compound concentration",mu opiate receptor (MOR); [7],218.9%
COc1cc(S(=O)(=O)N2CCC3(CC2)OCCN3S(=O)(=O)c2cc(OC)c(OC)c(OC)c2)cc(OC)c1OC [Compound C0062],inhibition at 0.01 µM,[1]; [2],39.5%
same,inhibition at 0.1 µM,[1]; [3],49.5%
same,inhibition at 1 µM,[1]; [4],48%
same,% DAMGO (0.1 μM),"mu opiate receptor (MOR); Series C-1, 0.1 μM compound",81.9%
same,Concentration of FLNA-Binding Compound as Agonist 0.1 μM,mu opiate receptor (MOR); [11],127.8%
same,Concentration of FLNA-Binding Compound as Agonist 1 μM + BFNA,mu opiate receptor (MOR); [12],59.8%
same,% DAMGO + BFNA,mu opiate receptor (MOR); Series C-1,149.9%
same,% DAMGO (1 μM),"mu opiate receptor (MOR); Series C-1, 1 μM compound",134.7%
same,Concentration of FLNA-Binding Compound as Agonist 1 μM,mu opiate receptor (MOR); [13],310.5%
CC(=O)c1ccc(S(=O)(=O)N2CCC3(CC2)NC(=O)CN3S(=O)(=O)c2ccc(C(C)=O)cc2)cc1 [Compound C0064],inhibition at 0.01 µM,[1]; [8],37.3%
same,inhibition at 0.1 µM,[1]; [9],44.4%
same,inhibition at 1 µM,[1]; [10],49.2%
same,% DAMGO (0.1 μM),"mu opiate receptor (MOR); Series C-1, 0.1 μM compound",124.2%
same,Concentration of FLNA-Binding Compound as Agonist 0.1 μM,mu opiate receptor (MOR); [11],213.8%
same,Concentration of FLNA-Binding Compound as Agonist 1 μM + BFNA,mu opiate receptor (MOR); [12],38.1%
same,% DAMGO + BFNA,mu opiate receptor (MOR); Series C-1,110.4%
same,% DAMGO (1 μM),"mu opiate receptor (MOR); Series C-1, 1 μM compound",159.1%
same,Concentration of FLNA-Binding Compound as Agonist 1 μM,mu opiate receptor (MOR); [13],349.6%
CC(=O)c1ccc(S(=O)(=O)N2CCC3(CC2)OC(CN(C)C)CN3S(=O)(=O)c2ccc(C(C)=O)cc2)cc1 (stereo not drawn) [Compound C0065],inhibition at 0.01 µM,[1]; [8],37.1%
same,inhibition at 0.1 µM,[1]; [9],44%
same,inhibition at 1 µM,[1]; [10],47%
same,% DAMGO (0.1 μM),"mu opiate receptor (MOR); Series C-1, 0.1 μM compound",127.0%
same,Concentration of FLNA-Binding Compound as Agonist 0.1 μM,mu opiate receptor (MOR); [11],198.3%
same,Concentration of FLNA-Binding Compound as Agonist 1 μM + BFNA,mu opiate receptor (MOR); [12],47.7%
same,% DAMGO + BFNA,mu opiate receptor (MOR); Series C-1,119.5%
same,% DAMGO (1 μM),"mu opiate receptor (MOR); Series C-1, 1 μM compound",121.3%
same,Concentration of FLNA-Binding Compound as Agonist 1 μM,mu opiate receptor (MOR); [13],279.5%
O=S(=O)(c1ccc(Cl)cc1)N1CCC2(CC1)OCCN2S(=O)(=O)c1ccc(Cl)cc1 [Compound C0067],inhibition at 0.01 µM,[1]; [2],31.3%
same,inhibition at 0.1 µM,[1]; [3],39.7%
same,inhibition at 1 µM,[1]; [4],45%
same,% DAMGO (0.1 μM),"mu opiate receptor (MOR); Series C-1, 0.1 μM compound",82.9%
same,Concentration of FLNA-Binding Compound as Agonist 0.1 μM,mu opiate receptor (MOR); [11],142.7%
same,Concentration of FLNA-Binding Compound as Agonist 1 μM + BFNA,mu opiate receptor (MOR); [12],33.5%
same,% DAMGO + BFNA,mu opiate receptor (MOR); Series C-1,97.1%
same,% DAMGO (1 μM),"mu opiate receptor (MOR); Series C-1, 1 μM compound",81.5%
same,Concentration of FLNA-Binding Compound as Agonist 1 μM,mu opiate receptor (MOR); [13],179.0%
O=S(=O)(c1ccc(Br)cc1C(F)(F)F)N1CCC2(CC1)OCCN2S(=O)(=O)c1ccc(Br)cc1C(F)(F)F [Compound C0068],inhibition at 0.01 µM,[1]; [8],53.7%
same,inhibition at 0.1 µM,[1]; [9],58.6%
same,inhibition at 1 µM,[1]; [10],62.2%
same,% DAMGO (0.1 μM),"mu opiate receptor (MOR); Series C-1, 0.1 μM compound",53.4%
same,Concentration of FLNA-Binding Compound as Agonist 0.1 μM,mu opiate receptor (MOR); [11],107.2%
same,Concentration of FLNA-Binding Compound as Agonist 1 μM + BFNA,mu opiate receptor (MOR); [12],165.9%
same,% DAMGO + BFNA,mu opiate receptor (MOR); Series C-1,307.8%
same,% DAMGO (1 μM),"mu opiate receptor (MOR); Series C-1, 1 μM compound",83.8%
same,Concentration of FLNA-Binding Compound as Agonist 1 μM,mu opiate receptor (MOR); [13],263.1%
